A short description of series [1]: Pharmacokinetic study of vanillin-thiazolidine adduct and vanillin by oral administration in rats (vanillin in blood by HPLC). Format: in vivo, Sprague-Dawley rats. The following applies: oral gavage, blood concentration-time curves 2-180 min. Here is the method:
Sixteen Sprague-Dawley rats (male, 200-300 g) were catheterized at the carotid at least 12 hours before drug administration and the catheter was flushed with heparin solution to prevent line clotting. […] Blood samples were collected by unhooking the flush syringe and letting the blood flow freely into centrifuge tubes at predetermined time points, i.e., 2, 5, 10, 15, 30, 45, 60, 90, 120 and 180 minutes after gavage. To each 100 μl of blood sample was added 400 μl of perchloric acid in a centrifuge tube. After vigorously vortexing, the samples in centrifuge tubes were spun down at 13,000 rpm for 10 min.
A striking difference was noted between the pharmacokinetic profiles of vanillin-thiazolidine and of unmodified vanillin.
Noncompartmental pharmacokinetic analysis was then carried out using WinNolin (Pharsight Inc., Mountain View, Calif.) and the results are summarized in Table 1, below. […] The maximum concentration at 2 minutes (Cmax) was also approximately 4 times higher in the former compared to the latter.

For series [2] the following is noted: cited from earlier work.
Another series has as its target hemoglobin S (Homo sapiens, UniProt P68871+P69905, E7V). The following applies: in solution and in intact red cells; cited from earlier work.
For series [3] the following is noted: orally administered; extensive metabolism in the intestines and liver; cited from earlier work.
The nature of series [4]: Hydrophobicity compared with vanillin. Format: physicochemical. An excerpt:
It is well known that vanillin can be extensively metabolized by intestinal bacteria and the liver (Strand and Scheline, supra). It is likely that the vanillin-derived thiazolidine is not easily metabolized by the same routes.

With `COc1cc(C=O)ccc1O` [Vanillin, 4-hydroxy-3-methoxybenzaldehyde], the “vanillin levels in the blood and half-life (FIG. 1 profile, in words)” value in series [1] was “low with a short half-life”. Moreover, the “body and organ weights, hemotology, histopathology, test vs control rats” value in series [2] (1.0% of the diet for 16 weeks, 2.0% and 5.0% for 1 year, or 0.5%, 1.0% and 2.0% for 2 years) is listed as “no significant differences”. In addition, the “toxicity on extended feeding” value in series [2] (rats, vanillin at high levels for extensive periods) is given as “No toxicity was observed”. The “oxygen affinity of hemoglobin S” value at hemoglobin S is on record as “marked increase in oxygen affinity”. The oral bioavailability entry in series [3] was “poorly bioavailable”.
On to `CCOC(=O)C1CSC(c2ccc(O)c(OC)c2)N1` (stereo not shown) [Vanillin-Thiazolidine Adduct, Ethyl 2-(4-hydroxy-3-methoxyphenyl)-1,3-thiazolidine-4-carboxylate], for which, in series [1], the “vanillin levels in the blood and half-life (FIG. 1 profile, in words)” value is reported as “higher, with a much longer half-life”. For the same compound, the “hydrophobicity relative to vanillin” value in series [4] is reported as “more hydrophobic than vanillin”.

These data come from patent US20030022923A1, “Methods for treatment of sickle cell anemia” (Medinox, Inc., priority 2001, published 2003).
